Experimental data reported in ChEMBL document CHEMBL5532736, “Novel Approaches for Upregulation of Tumor Suppressor Proteins: Pioneering Strategies and Integrative Potentials” (ACS Med Chem Lett, 2024).

Experiments:
[1] = Cytotoxicity against human EU-1 cells assessed as inhibition of cell viability incubated for 24 to 72 hrs by CCK8 assay; assay type: functional, cell-based
[2] = biological target: E3 ubiquitin-protein ligase Mdm2 (Homo sapiens) (UniProt Q00987); assay: Induction of MDM2 degradation in human EU-1 cells incubated for 6 hrs by Western blot analysis; assay type: cell-based; details: dose <= 2.0 µM
[3] = biological target: E3 ubiquitin-protein ligase Mdm2 (Homo sapiens) (UniProt Q00987); assay: Induction of MDM2 degradation in human EU-1 cells at 0.8 uM by Western blot analysis; assay type: cell-based; details: time <= 24.0 hrs, TDE = time-dependent effect
[4] = biological target: E3 ubiquitin-protein ligase Mdm2 (Homo sapiens) (UniProt Q00987); assay: Induction of MDM2 degradation in human EU-1 cells assessed as increase in p53 level incubated for 6 hrs by Western blot analysis; assay type: cell-based; details: dose <= 2.0 µM
[5] = biological target: E3 ubiquitin-protein ligase Mdm2 (Homo sapiens) (UniProt Q00987); assay: Induction of MDM2 degradation in human EU-1 cells assessed as increase in p53 level at 0.8 uM by Western blot analysis; assay type: cell-based; details: time <= 24.0 hrs, TDE = time-dependent effect

Sequence of E3 ubiquitin-protein ligase Mdm2 (Homo sapiens) (Q00987 whole entry, looked up): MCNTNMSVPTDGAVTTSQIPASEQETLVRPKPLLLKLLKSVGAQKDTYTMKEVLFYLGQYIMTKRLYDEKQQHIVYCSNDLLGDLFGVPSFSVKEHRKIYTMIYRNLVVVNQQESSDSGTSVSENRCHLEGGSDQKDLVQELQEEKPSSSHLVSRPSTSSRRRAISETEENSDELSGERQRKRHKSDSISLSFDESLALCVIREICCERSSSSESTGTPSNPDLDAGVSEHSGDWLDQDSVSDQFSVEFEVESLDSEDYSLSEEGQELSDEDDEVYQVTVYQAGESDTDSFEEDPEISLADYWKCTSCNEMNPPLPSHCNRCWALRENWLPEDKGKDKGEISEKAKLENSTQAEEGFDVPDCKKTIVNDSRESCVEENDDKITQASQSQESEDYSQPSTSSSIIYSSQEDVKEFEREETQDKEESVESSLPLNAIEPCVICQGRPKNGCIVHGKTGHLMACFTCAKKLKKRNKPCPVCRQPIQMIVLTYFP

| SMILES | IC50 [1] | also measured |
| --- | --- | --- |
| CC(=O)CCCOc1cc(NC(=O)CCl)cc2c1C(=O)c1c(O)cccc1C2=O | 840 nM |  |
| C=CC(=O)Nc1cc(OCCCC(C)=O)c2c(c1)C(=O)c1cccc(OCCCC(C)=O)c1C2=O | 6210 nM |  |
| CC(=O)CCOc1cccc2c1C(=O)c1c(OCCC(C)=O)cc(NC(=O)CCl)cc1C2=O | 450 nM |  |
| CC(=O)CCCOc1cccc2c1C(=O)c1c(OCCCC(C)=O)cc(NC(=O)CCl)cc1C2=O | 430 nM | Activity [2]: Dose-Dependent Effect; Activity [3]: Tde; Activity [4]: Dose-Dependent Effect; Activity [5]: Tde |
| CC(=O)CCCCOc1cccc2c1C(=O)c1c(OCCCCC(C)=O)cc(NC(=O)CCl)cc1C2=O | 790 nM |  |
| O=C(CCl)Nc1cc(OCCO)c2c(c1)C(=O)c1cccc(OCCO)c1C2=O | 740 nM |  |
| C=CS(=O)(=O)Nc1cc(OCCCC(C)=O)c2c(c1)C(=O)c1cccc(OCCCC(C)=O)c1C2=O | 3450 nM |  |
| C#CC(=O)Nc1cc(OCCCC(C)=O)c2c(c1)C(=O)c1cccc(OCCCC(C)=O)c1C2=O | 190 nM |  |
| CC(=O)CCCOc1cccc2c1C(=O)c1c(OCCCC(C)=O)cc(NC(C)=O)cc1C2=O | > 100000 nM |  |
